{"source": "patent US20170042870A1", "about": "“TARGETED NANOPARTICLE COMPOSITIONS AND METHODS OF THEIR USE TO TREAT OBESITY” (priority 2014, published 2017)", "key": {"[1]": {"system": "stromal vascular fragments (SVF) from WAT", "assay": "Proliferation and cellular toxicity of SVF", "assay_type": "cell-based, mice", "settings": "in vitro", "protocol": "(§1) WAT was dissected and extensively washed with Hank's Balanced Salt Solution (HBSS, Invitrogen). Tissues were cut into small pieces using a surgical scissor, and digested with 0.1% collagenase A in HBSS and 1% bovine serum albumin (SigmaAldrich) for 30 minutes at 37 C with gentle shaking. The digested tissues were suspended in Dulbecco's modified Eagle's medium containing 10% fetal bovine serum, and then passed through a 100 μm cell strainer (BD Falcon) to remove debris. Subsequently, cell suspension was centrifuged for 10 minutes at 300×g. 3. After removal of the floating cell layer and supernatant, the cell pellet was resuspended in 10 ml of HBSS, and then filtered through a 40 μm cell strainer (BD Falcon). The filtered cell suspension was layered on top of a Histopaque-1077 solution (10 ml) in a 50 ml tube, and then centrifuged at 400 g for 30 min at room temperature. The SVF cell layer at the gradient interface was collected and washed with HBSS. Cell counts and viability assessment were performed. Primary SVF or sorted cells were maintained in DMEM plus 10% FCS, 1% penicillin/streptomycin, and 10 ng/ml murine bFGF (R&D Systems).\n(§2) Angiogenic vessels usually express high levels of integrins, particularly αv and β3 subunits. […]"}, "[2]": {"assay": "Serological parameters in fasted DIO mice", "assay_type": "in vivo, C57Bl/6 mice", "settings": "25 days", "protocol": "Serum levels of free fatty acid, glucose, triglycerides and cholesterol contents from fasted obese mice were determined by standard kits from Cayman Chemical Co. (Ann Arbor, Mich.). Serum insulin from fasted obese mice was determined by ELISA method according to manufacturer's protocol (Millipore, Billerica, Mass.).\nSerum was collected from DIO mice that were fasted for five hours following 25 days of treatments, and analyzed for levels of serological parameters."}, "[3]": {"assay": "Body weight gain and food intake in DIO mice", "assay_type": "in vivo, C57Bl/6 mice", "settings": "25 days post treatment, vs non-treated obese mice", "from_the_text": "All animal studies were approved by the Committee on Animal Care, Massachusetts Institute of Technology. 6-week-old male wild-type mice and 10-week-old male diet-induced obese mice, of the C57Bl/6 strain, were used in current studies. High-fat-diet (TD-06414, 60/Fat) was purchased from Harlan Laboratories, and was used to induce and maintain obesity in C57Bl/6 mice.\nStandard diet fed or high-fat-diet fed C57Bl/6 mice were intravenous injected with either NP constructs or free drug (rosiglitazone or 16,16-dimethyl-PGE2) at the drug dose of 80 mg/kg, every second day. Free Rosi was dissolved in DMSO followed by dilution in saline.\nThe high-fat-diet induced obese model was used to assess the possible impact of the two peptide-NP-Rosi on body weight, tissue histology, and molecular expression profiles. There was no difference in body weight gain between the mice treated with Rosi (in solution and non-targeted NP forms) and non-treated obese mice (FIGS. 5A and B)."}, "CD31+ SVF": {"system": "CD31+ SVF", "assay": "Integrinαv antibody staining of CD31-sorted SVF", "assay_type": "cell-based, mice", "settings": "in vitro", "protocol": "Angiogenic vessels usually express high levels of integrins, particularly αv and β3 subunits. To evaluate whether Rosi-loaded NPs can effectively induce expression of integrins on vascular cells, the stromal vascular fragments (SVF) were isolated from WAT, followed by treatment with Rosi (1 μM) in either solution or non-targeted NP form. CD31+ SVF was sorted and stained with Integrinαv antibody, Isolectin B4 and DAPI. C57Bl/6 mice were treated with Rosi, NP-Rosi, iRGD-NP-Rosi or P3-NP-Rosi for two weeks (n=3). IngWAT, epiWAT and livers were dissected and representative samples were imaged under IVIS imaging system. Inguinal WAT and epididymal WAT were dissected and representative samples were photographed.\nIt should also be noted that no evidence of cellular toxicity was observed under all the conditions. SVFs were sorted with an endothelial marker CD31, and stained cells with an Integrinαv antibody."}, "[4]": {"system": "stromal vascular fragments (SVF) from WAT", "assay": "qRT-PCR of integrin expression in SVF treated in vitro", "assay_type": "cell-based, mice", "settings": "Rosi 1 μM", "protocol": "as §1, §2"}}, "data": [{"smiles": "CN(CCOc1ccc(CC2SC(=O)NC2=O)cc1)c1ccccn1", "note": "(racemic) [Rosi, (RS)-5-[4-(2-[methyl(pyridin-2-yl)amino]ethoxy)benzyl]thiazolidine-2,4-dione]", "values": [{"measurement": "proliferation of SVF", "setting": "[1]", "result": "stimulated the proliferation of SVF"}, {"measurement": "reduction of serum insulin", "setting": "[2]", "result": 3, "unit": "folds"}, {"measurement": "body weight gain", "setting": "[3]", "result": "no difference"}, {"measurement": "Integrinαv on CD31-sorted SVF (antibody staining)", "setting": "CD31+ SVF", "result": "upregulated"}, {"measurement": "expression level of Integrinαv on SVF (qRT-PCR)", "setting": "[4]", "result": "elevated the expression levels of Integrinαv"}]}]}
